Numbered stars: 1 amine (or outer) side, 2 acyl side, 3 side chain; on linkers, the order of the positions; unused ones are H or OH. Bridge positions count the residues as written; N and C are the ends. Square brackets hold non-standard residues; d marks the D form. Peptide text beside a SMILES is read from it. * marks the point of attachment. hPhe(3,5-F2-4-CF3) = N[C@@H](CCc1cc(F)c(C(F)(F)F)c(F)c1)C(=O)O; hPhe(3-Cl-4-CF3) = N[C@@H](CCc1ccc(C(F)(F)F)c(Cl)c1)C(=O)O; hPhe(3-F,4-CF3) = N[C@@H](CCc1ccc(C(F)(F)F)c(F)c1)C(=O)O; NMePhe(4-CF3) = CN[C@@H](Cc1ccc(C(F)(F)F)cc1)C(=O)O; NEtPhe(4-Me) = CCN[C@@H](Cc1ccc(C)cc1)C(=O)O; NMePhe(4-Me) = CN[C@@H](Cc1ccc(C)cc1)C(=O)O; NMedβ3hAla = C[C@H](CC(=O)[*:2])N(C)[*:1]; NMeGly(cPent) = CN[C@H](C(=O)O)C1CCCC1; NMeCha = CN[C@@H](CC1CCCCC1)C(=O)O; Hyp = O=C(O)[C@@H]1C[C@@H](O)CN1; NMeF = CN[C@@H](Cc1ccccc1)C(=O)O; NMeI = CC[C@H](C)[C@H](NC)C(=O)O; NMeD = CN[C@@H](CC(=O)O)C(=O)O; CH2CONHtBu = CC(C)(C)NC(=O)C*; NMeL = CN[C@@H](CC(C)C)C(=O)O; NMeV = CN[C@H](C(=O)O)C(C)C; d(β3hA) = C[C@@H](N)CC(=O)O; Azetidin(1-yl) = C1CN(*)C1; NMeAbu = CC[C@H](NC)C(=O)O; NMeS = CN[C@@H](CO)C(=O)O; NMeA = CN[C@@H](C)C(=O)O; NMeAib = CNC(C)(C)C(=O)O; Piperidide = C1CCN(*)CC1; Pyrrolidide = C1CCN(*)C1; dNMeA = CN[C@H](C)C(=O)O; Ac5c = NC1(C(=O)O)CCCC1; Aze = O=C(O)[C@@H]1CCN1; Aib = CC(C)(N)C(=O)O; Isopentyl = CC(C)CC*; NEtG = CCNCC(=O)O; Sar = CNCC(=O)O
What was measured:
[1] = tested on: Human pancreatic cancer cell line AsPC-1 (G12D mutation Kras); experiment: AsPC-1 cell growth inhibition (AsPC-1 CGI); type: cell-based; conditions: read-out: AsPC-1 cell growth inhibition, 50% growth inhibitory concentration (IC50 value); 96 hours, CellTiter-Glo, values classified in ranges
Method: Test compounds were serially dilated with dimethyl sulfoxide, and 200 nL was then dispensed to a U-bottom 96-well plate using Labcyte Echo. […] The cell suspension was dispensed to a. plate containing a test compound at 100 μL per well and incubated at 37° C. in a 5% carbon dioxide gas incubator. 96 hours later, 80 μL of CellTiter-Glo (Promega) was added to each well and fluorescence was measured.

[2] = biological target: protein-protein interaction between Kras and SOS1 (biotin-tagged human Kras loaded with GDP, His-tagged human SOS1) (Homo sapiens (Human), UniProt P01116, G12D); experiment: Protein-protein interaction inhibition between Kras and SOS1 (KrasG12D-SOS PPI) using AlphaScreen; type: biochemical; conditions: AlphaScreen; biotin-tagged human Kras loaded with GDP, His-tagged human SOS1; read-out: KRAS G12D-SOS PPI IC50;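 note: kras produced in E. coli, Ni-coupled donor beads and streptavidin acceptor beads, excitation 680 nm with emission detected at 520–620 nm via singlet oxygen transfer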

## CC[C@H](C)[C@@H]1NC(=O)[C@H](COCC(=O)NC(C)(C)C)N(C)C(=O)C[C@@H](C)NC(=O)[C@H](CC(C)C)N(C)C(=O)C(C)(C)NC(=O)[C@H](CC(C)C)N(C)C(=O)[C@H](CCc2ccc(C(F)(F)F)c(Cl)c2)NC(=O)CN(C)C(=O)[C@H](COCCC(C)C)N(C)C(=O)CN(C)C(=O)CN(CC)C1=O [Compound 1495] (cyclo([Aib][NMeL][d(β3hA)][NMeS](CH2CONHtBu)I[NEtG][Sar][NMeS](Isopentyl)[Sar][hPhe(3-Cl-4-CF3)][NMeL]))
[1]
  IC50: > 500 nM
[2]
  IC50: 120 nM

## CC[C@H](C)[C@@H]1NC(=O)[C@H](CC(C)C)N(C)C(=O)C[C@@H](C(=O)N(C)C)N(C)C(=O)[C@H](C2CCCC2)N(C)C(=O)C2(CCCC2)NC(=O)[C@@H]2CCCN2C(=O)[C@H](CCc2ccc(C(F)(F)F)c(F)c2)NC(=O)CN(CC)C(=O)[C@H](CC2CCCCC2)N(C)C(=O)[C@@H]2CCN2C(=O)[C@H](C)N(C)C1=O [Compound 1205] ([NMeL]I[NMeA][Aze][NMeCha][NEtG][hPhe(3-F,4-CF3)]P[Ac5c][NMeGly(cPent)][NMeD]-NMe2; lactam N-11)
[1]
  IC50: ≤ 20 nM
[2]
  IC50: 2.8 nM

## CC[C@H](C)[C@@H]1NC(=O)[C@H](CC(C)C)N(C)C(=O)C[C@@H](C)N(C)C(=O)[C@H](CC(C)C)NC(=O)C(C)(C)N(C)C(=O)[C@H](CC(C)C)NC(=O)[C@H](CCc2ccc(C(F)(F)F)c(Cl)c2)NC(=O)CN(C)C(=O)[C@H](Cc2ccc(C)cc2)N(C)C(=O)CN(C)C(=O)CN(C)C1=O [Compound 1388] (cyclo(I[Sar][Sar][NMePhe(4-Me)][Sar][hPhe(3-Cl-4-CF3)]L[NMeAib]L[NMedβ3hAla][NMeL]))
[1]
  IC50: > 500 nM
[2]
  IC50: 10 nM

## CC[C@H](C)[C@@H]1NC(=O)[C@H](CC(C)C)N(C)C(=O)C[C@@H](C(=O)N2CCCC2)N(C)C(=O)[C@H]([C@@H](C)CC)N(C)C(=O)C2(CCCC2)NC(=O)[C@@H]2CCCN2C(=O)[C@H](CCc2ccc(C(F)(F)F)c(Cl)c2)NC(=O)CN(C)C(=O)[C@H](C2CCCC2)N(C)C(=O)[C@@H]2CCN2C(=O)[C@H](C)N(C)C1=O [Compound 799] ([NMeL]I[NMeA][Aze][NMeGly(cPent)][Sar][hPhe(3-Cl-4-CF3)]P[Ac5c][NMeI][NMeD]-Pyrrolidide; lactam N-11)
[1]
  IC50: ≤ 20 nM
[2]
  IC50: 1.4 nM

## CC[C@H](C)[C@@H]1NC(=O)[C@H](CC(C)C)N(C)C(=O)C[C@@H](C(=O)N2CCCCC2)N(C)C(=O)[C@H](C(C)C)N(C)C(=O)C2(CCCC2)NC(=O)[C@@H]2CCCN2C(=O)[C@H](CCc2ccc(C(F)(F)F)c(Cl)c2)NC(=O)CN(C)C(=O)[C@H](CC)N(C)C(=O)[C@@H]2CCN2C(=O)[C@H](C)N(C)C1=O [Compound 1752] ([NMeL]I[NMeA][Aze][NMeAbu][Sar][hPhe(3-Cl-4-CF3)]P[Ac5c][NMeV][NMeD]-Piperidide; lactam N-11)
[1]
  IC50: > 500 nM
[2]
  IC50: 17 nM

## CCO[C@@H]1C[C@H]2C(=O)NC3(CCCC3)C(=O)N(C)[C@@H]([C@@H](C)CC)C(=O)N(C)[C@H](C(=O)N3CCCC3)CC(=O)N(C)[C@@H](CC(C)C)C(=O)N[C@@H]([C@@H](C)CC)C(=O)N(C)[C@@H](C)C(=O)N3CC[C@H]3C(=O)N(C)[C@@H](Cc3ccc(C(F)(F)F)cc3)C(=O)N(C)CC(=O)N[C@@H](CCc3ccc(C(F)(F)F)c(Cl)c3)C(=O)N2C1 [Compound 1335] ([NMeL]I[NMeA][Aze][NMePhe(4-CF3)][Sar][hPhe(3-Cl-4-CF3)][Hyp](Et)[Ac5c][NMeI][NMeD]-Pyrrolidide; lactam N-11)
[1]
  IC50: ≤ 20 nM
[2]
  IC50: 0.49 nM

## CC[C@H](C)[C@@H]1NC(=O)[C@H](C)N(C)C(=O)C[C@@H](C(=O)N2CCCCC2)N(C)C(=O)[C@H](C(C)C)N(C)C(=O)C2(CCCC2)NC(=O)[C@@H]2CCCN2C(=O)[C@H](CCc2ccc(C(F)(F)F)c(Cl)c2)NC(=O)[C@@H](C)N(C)C(=O)[C@H](Cc2ccccc2)N(C)C(=O)[C@@H]2CCN2C(=O)[C@H](C)N(C)C1=O [Compound 1724] ([NMeA]I[NMeA][Aze][NMeF][dNMeA][hPhe(3-Cl-4-CF3)]P[Ac5c][NMeV][NMeD]-Piperidide; lactam N-11)
[1]
  IC50: > 500 nM
[2]
  IC50: 16 nM

## CC[C@H](C)[C@@H]1NC(=O)[C@H](CC(C)C)N(C)C(=O)C[C@@H](C(=O)N2CCC2)N(C)C(=O)[C@H](C2CCCC2)N(C)C(=O)C2(CCCC2)NC(=O)[C@@H]2CCCN2C(=O)[C@H](CCc2cc(F)c(C(F)(F)F)c(F)c2)NC(=O)CN(C)C(=O)[C@H](Cc2ccc(C)cc2)N(CC)C(=O)[C@@H]2CCN2C(=O)[C@H](C)N(C)C1=O [Compound 55] ([NMeL]I[NMeA][Aze][NEtPhe(4-Me)][Sar][hPhe(3,5-F2-4-CF3)]P[Ac5c][NMeGly(cPent)][NMeD]-{Azetidin(1-yl)}; lactam N-11)
[1]
  IC50: ≤ 20 nM
[2]
  IC50: 0.77 nM

## CCO[C@@H]1C[C@H]2C(=O)NC3(CCCC3)C(=O)N(C)[C@@H]([C@@H](C)CC)C(=O)N(C)[C@H](C)CC(=O)N(C)[C@@H](CC(C)C)C(=O)N[C@@H]([C@@H](C)CC)C(=O)N(C)[C@@H](C)C(=O)N3CC[C@H]3C(=O)N(CC)[C@@H](Cc3ccc(C)cc3)C(=O)N(C)CC(=O)N[C@@H](CCc3cc(F)c(C(F)(F)F)c(F)c3)C(=O)N2C1 [Compound 33] (cyclo([Ac5c][NMeI][NMedβ3hAla][NMeL]I[NMeA][Aze][NEtPhe(4-Me)][Sar][hPhe(3,5-F2-4-CF3)][Hyp](Et)))
[1]
  IC50: ≤ 20 nM
[2]
  IC50: 6.9 nM
